From ChEMBL document CHEMBL4665822, “Structure-Guided Optimization of Dipeptidyl Inhibitors of Norovirus 3CL Protease” (J Med Chem, 2020)

Assays:
[1] = Inhibition of Norovirus 3CL protease using Edans-DFHLQ/GPDabcyl preincubated for 30 mins followed by substrate addition and measured after 1 hr by FRET assay
[2] = Cytotoxicity against human HG23 cells assessed as reduction cell viability after 48 hrs by CytoTox 96 nonradioactive assay; assay type: cell-based
Norovirus = assay: Antiviral activity against Norovirus replicon infected in human HG23 cells assessed as reduction in viral RNA level after 48 hrs by qRT-PCR analysis; assay type: functional, cell-based; details: HG23, 48 h

Structure (SMILES)	IC50 [1]	CC50 at 48 h [2]	EC50 (Norovirus)
CC(C)C[C@H](NC(=O)OCC(C)(C)c1ccccc1)C(=O)N[C@H](C=O)C[C@@H]1CCNC1=O	450 nM	> 100000 nM	650 nM
CC(C)(COC(=O)N[C@@H](CC1CCCCC1)C(=O)N[C@@H](C[C@@H]1CCNC1=O)C(O)S(=O)(=O)O)Cc1cccc(Cl)c1 (some centres not stated)	140 nM	16200 nM	70 nM
CC(C)C[C@H](NC(=O)OC(C)(C)Cc1cccc(Cl)c1)C(=O)N[C@H](C=O)C[C@@H]1CCNC1=O	1200 nM	> 100000 nM	900 nM
CC(=O)OC([C@H](C[C@@H]1CCNC1=O)NC(=O)[C@H](CC1CCCCC1)NC(=O)OCC(C)(C)c1cccc(Cl)c1)S(=O)(=O)O (some centres not stated)	90 nM	67000 nM	150 nM
CC(C)(OC(=O)N[C@@H](CC1CCCCC1)C(=O)N[C@H](C=O)C[C@@H]1CCNC1=O)c1cccc(Cl)c1	2900 nM	> 100000 nM	3700 nM
CCCCCC(=O)OC([C@H](C[C@@H]1CCNC1=O)NC(=O)[C@H](CC1CCCCC1)NC(=O)OCC(C)(C)Cc1cccc(Cl)c1)S(=O)(=O)O (some centres not stated)	–	20700 nM	80 nM
CC(=O)OC([C@H](C[C@@H]1CCNC1=O)NC(=O)[C@H](CC(C)C)NC(=O)OCC(C)(C)c1cccc(Cl)c1)S(=O)(=O)O (some centres not stated)	130 nM	> 100000 nM	450 nM
CC(C)(COC(=O)N[C@@H](CC1CCCCC1)C(=O)N[C@H](C=O)C[C@@H]1CCNC1=O)c1ccccc1	450 nM	80100 nM	600 nM
CC(C)(COC(=O)N[C@@H](CC1CCCCC1)C(=O)N[C@H](C=O)C[C@@H]1CCNC1=O)Cc1cccc(Cl)c1	110 nM	14100 nM	60 nM
CC(C)C[C@H](NC(=O)OC1(c2cccc(Cl)c2)CC1)C(=O)N[C@@H](C[C@@H]1CCNC1=O)C(O)S(=O)(=O)O (some centres not stated)	250 nM	> 100000 nM	550 nM
CC(C)C[C@H](NC(=O)OCCCc1ccccc1)C(=O)N[C@H](C=O)C[C@@H]1CCNC1=O	750 nM	> 100000 nM	770 nM
CC(C)(COC(=O)N[C@@H](CC1CCCCC1)C(=O)N[C@@H](C[C@@H]1CCNC1=O)C(O)S(=O)(=O)O)c1cccc(Cl)c1 (some centres not stated)	200 nM	14300 nM	80 nM
CC(C)C[C@H](NC(=O)OCC(C)(C)c1cccc(Cl)c1)C(=O)N[C@H](C=O)C[C@@H]1CCNC1=O	270 nM	> 100000 nM	170 nM
CC(C)(Cc1cccc(Cl)c1)OC(=O)N[C@@H](CC1CCCCC1)C(=O)N[C@H](C=O)C[C@@H]1CCNC1=O	7700 nM	15600 nM	5400 nM
O=C[C@H](C[C@@H]1CCNC1=O)NC(=O)[C@H](CC1CCCCC1)NC(=O)OC1(c2cccc(Cl)c2)CC1	280 nM	36500 nM	250 nM
O=C[C@H](C[C@@H]1CCNC1=O)NC(=O)[C@H](CC1CCCCC1)NC(=O)OCCCc1cccc(Cl)c1	–	30300 nM	80 nM
O=C(N[C@@H](CC1CCCCC1)C(=O)N[C@@H](C[C@@H]1CCNC1=O)C(O)S(=O)(=O)O)OC/C=C/c1cccc(Cl)c1 (some centres not stated)	160 nM	28300 nM	70 nM
CC(C)(COC(=O)N[C@@H](CC1CCCCC1)C(=O)N[C@H](C=O)C[C@@H]1CCNC1=O)c1cccc(Cl)c1	230 nM	13300 nM	70 nM
O=C[C@H](C[C@@H]1CCNC1=O)NC(=O)[C@H](CC1CCCCC1)NC(=O)OC/C=C/c1cccc(Cl)c1	140 nM	24100 nM	60 nM

Structure (SMILES)	IC50 [1]	CC50 at 48 h [2]	EC50 (Norovirus)
CCC(=O)OC([C@H](C[C@@H]1CCNC1=O)NC(=O)[C@H](CC1CCCCC1)NC(=O)OCC(C)(C)Cc1cccc(Cl)c1)S(=O)(=O)O (some centres not stated)	340 nM	18400 nM	100 nM
CC(C)C[C@H](NC(=O)OC/C=C/c1cccc(Cl)c1)C(=O)N[C@H](C=O)C[C@@H]1CCNC1=O	150 nM	> 100000 nM	80 nM
CC(C)C[C@H](NC(=O)OC(C)(C)c1cccc(Cl)c1)C(=O)N[C@@H](C[C@@H]1CCNC1=O)C(O)S(=O)(=O)O (some centres not stated)	3300 nM	> 100000 nM	1800 nM
O=C(N[C@@H](CC1CCCCC1)C(=O)N[C@@H](C[C@@H]1CCNC1=O)C(O)S(=O)(=O)O)OC1(c2cccc(Cl)c2)CC1 (some centres not stated)	270 nM	42300 nM	180 nM
CC(C)C[C@H](NC(=O)OCCCc1cccc(Cl)c1)C(=O)N[C@@H](C[C@@H]1CCNC1=O)C(O)S(=O)(=O)O (some centres not stated)	190 nM	> 100000 nM	90 nM
CC(C)(OC(=O)N[C@@H](CC1CCCCC1)C(=O)N[C@@H](C[C@@H]1CCNC1=O)C(O)S(=O)(=O)O)c1cccc(Cl)c1 (some centres not stated)	2700 nM	> 100000 nM	2900 nM
CC(C)C[C@H](NC(=O)OC/C=C/c1cccc(Cl)c1)C(=O)N[C@@H](C[C@@H]1CCNC1=O)C(O)S(=O)(=O)O (some centres not stated)	110 nM	> 100000 nM	80 nM
CC(C)(COC(=O)N[C@@H](CC1CCCCC1)C(=O)N[C@@H](C[C@@H]1CCNC1=O)C(O)S(=O)(=O)O)c1ccccc1 (some centres not stated)	320 nM	83900 nM	500 nM
CC(C)C[C@H](NC(=O)OC(C)(C)c1cccc(Cl)c1)C(=O)N[C@H](C=O)C[C@@H]1CCNC1=O	3800 nM	> 100000 nM	3500 nM
O=C(N[C@@H](CC1CCCCC1)C(=O)N[C@@H](C[C@@H]1CCNC1=O)C(O)S(=O)(=O)O)OCCCc1cccc(Cl)c1 (some centres not stated)	–	–	60 nM
CC(C)C[C@H](NC(=O)OCCCc1cccc(Cl)c1)C(=O)N[C@H](C=O)C[C@@H]1CCNC1=O	260 nM	> 100000 nM	160 nM
CC(C)C[C@H](NC(=O)OC1(c2cccc(Cl)c2)CC1)C(=O)N[C@H](C=O)C[C@@H]1CCNC1=O	280 nM	> 100000 nM	650 nM
CC(C)C[C@H](NC(=O)OCC(C)(C)c1ccccc1)C(=O)N[C@@H](C[C@@H]1CCNC1=O)C(O)S(=O)(=O)O (some centres not stated)	400 nM	> 100000 nM	450 nM
CCC(=O)OC([C@H](C[C@@H]1CCNC1=O)NC(=O)[C@H](CC1CCCCC1)NC(=O)OCC(C)(C)c1cccc(Cl)c1)S(=O)(=O)O (some centres not stated)	70 nM	70500 nM	220 nM
CC(C)C[C@H](NC(=O)OCC(C)(C)c1cccc(Cl)c1)C(=O)N[C@@H](C[C@@H]1CCNC1=O)C(O)S(=O)(=O)O (some centres not stated)	300 nM	> 100000 nM	190 nM
CC(C)(Cc1cccc(Cl)c1)OC(=O)N[C@@H](CC1CCCCC1)C(=O)N[C@@H](C[C@@H]1CCNC1=O)C(O)S(=O)(=O)O (some centres not stated)	6800 nM	20400 nM	2900 nM
CC(C)C[C@H](NC(=O)OC(C)(C)Cc1cccc(Cl)c1)C(=O)N[C@@H](C[C@@H]1CCNC1=O)C(O)S(=O)(=O)O (some centres not stated)	1000 nM	> 100000 nM	700 nM
CC(C)C[C@H](NC(=O)OCCCc1ccccc1)C(=O)N[C@@H](C[C@@H]1CCNC1=O)C(O)S(=O)(=O)O (some centres not stated)	600 nM	> 100000 nM	850 nM
